The NIST ThermoML archive (doi:10.1016/j.jct.2019.01.022)

Legend:
[1] = for mass density: 293 K, 101.33 kPa, Pycnometric method; for vapor or sublimation pressure: Transpiration method; for Normal melting temperature: DTA
[2] = Molar enthalpy of transition or fusion; conditions: DSC

CC(C)NC(=O)Nc1ccccc1 [1-isopropyl-3-phenylurea]
Crystal
Conditions | Molar enthalpy of transition or fusion [kcal/mol] | Normal melting temperature [°C] | mass density [kg/m3]
[1] | – | 156.2 | 1050
[2] | 5.35 | – | –

[1], Crystal
Conditions | vapor or sublimation pressure [kPa]
393.3 K | 0.00201
396.2 K | 0.00261
400.3 K | 0.00373
403.2 K | 0.00478
406.5 K | 0.00631
409.6 K | 0.00835
411.7 K | 0.00986
413.7 K | 0.01159
416.5 K | 0.01436
419.6 K | 0.01814
421.5 K | 0.02123
423.8 K | 0.02493

CC(C)(C)NC(=O)Nc1ccccc1 [1-tert-butyl-3-phenylurea]
Conditions | Molar enthalpy of transition or fusion, Crystal 1 [kcal/mol] | Molar enthalpy of transition or fusion, Crystal 2 [kcal/mol] | Normal melting temperature, Crystal 1 [°C] | Triple point temperature, Crystal 2, DSC [K] | mass density, Crystal 2 [kg/m3]
[1] | – | – | 168 | 432 | 1062
[2] | 5.9 | 1.86 | – | – | –

[1], Crystal 2
Conditions | vapor or sublimation pressure [kPa]
385.9 K | 0.00162
390 K | 0.00233
392.4 K | 0.00294
396.3 K | 0.00405
400.2 K | 0.00579
403.3 K | 0.00737
406.2 K | 0.00973
410.5 K | 0.01397
416.2 K | 0.02115
420.6 K | 0.03129
424 K | 0.03902
426.6 K | 0.0483
428.8 K | 0.05831
430.5 K | 0.066

NC(=O)Nc1ccccc1 [N-phenylurea]
[1], Crystal
Conditions | vapor or sublimation pressure [kPa]
386 K | 0.00061
391.7 K | 0.00103
396.2 K | 0.00154
399.5 K | 0.00209
402.4 K | 0.00275
406.2 K | 0.00394
408.3 K | 0.0047
411.5 K | 0.00607
413.6 K | 0.00714
